Assay results published in patent publication EP4745135A1 (Gluetacs Therapeutics (Shanghai) Co., Ltd., priority 2023, dated 2025).

Key:
GSPT1 = test: Western blot, degradation of substrate protein in hPBMCs; type: cell-based, Human
[1] = target: T1, human Cereblon WT GST-tagged protein (Homo sapiens, UniProt Q96SW2); test: CRBN-binding affinity, HTRF (CEREBLON BINDING kit); details: for inhibition at 0.5 µM: read-out: Inhibition Rate at 0.5 µM (%); for inhibition at 2 µM: read-out: Inhibition Rate at 2 µM (%)
T1 construct: purchased CISBIO 64BDCRBNPEH

CK1α = target: T2, CK1α (Homo sapiens, UniProt P48729+Q96SW2); test: Western blot, degradation of substrate protein in hPBMCs; type: cell-based
T2 construct: effects of the compounds of the present disclosure on the expression of target proteins in cells; endogenous in cells; host or cells: human PBMCs (Milecell Biotechnologies)
Procedure: (§1) Conventional Western blot assay was performed to evaluate the effects of the compounds of the present disclosure on the expression of target proteins in cells. • (1) Cell Seeding and Protein Harvesting: Human peripheral blood mononuclear cells (hPBMCs) at a density of 1×10^6 cells/mL were thawed according to the PBMC Recovery Protocol (Milecell Biotechnologies Inc, Shanghai). […] After 24 hours of compounds treatment, cells were harvested and lysed in RIPA protein lysate containing protease inhibitors on ice for 30 min, followed by centrifugation. The supernatant was aspirated as the extracted total cell protein. The protein concentration of the supernatant was determined using the conventional BCA (Bicinchoninic Acid) assay. • (2) To the collected supernatant, 5X SDS sample loading buffer was added, followed by denaturation at 95°C for 5 minutes. The denatured samples were then separated by SDS-PAGE electrophoresis on a polyacrylamide gel, transferred onto a nitrocellulose membrane (0.45 µm NC membrane), blocked with blocking buffer at room temperature for 1 hour, and subjected to antibody incubation and development procedures according to the antibody manufacturer's instructions (Cell Signaling Technology Company).
(§2) Half-Maximal Degradation Concentration value (the drug concentration required for degrading proteins by 50%, abbreviated as DC50) reads method: comparing the grayscale values of Western blot bands from drug-treated samples with those from blank DMSO-treated controls, and identifying the drug concentration range at which the grayscale value is half that of the DMSO-treated control bands.
(§3) DC50 values can be calculated using ImageJ software to measure grayscale values of Western blot bands from drug-treated samples. The concentration-response curve is fitted to estimate the drug concentration corresponding to half the grayscale value.
(§4) Target protein remaining (%) refers to the percentage of target protein remaining in cells after treatment with protein degrader compounds.
(§5) Calculation method for target protein remaining (%): Use ImageJ software to measure grayscale values of Western blot bands from drug (protein degrader)-treated samples. The grayscale value of drug-treated bands is divided by that of internal control protein bands, and the resulting quotient is normalized to obtain the relative percentage of remaining target protein after protein degrader treatment.
(§6) Target protein degradation rate (%) = 1−target protein remaining (%). [formula]

WEE1 = target: T3, WEE1 (Homo sapiens, UniProt P30291+Q96SW2); test: as above; type: cell-based
T3 construct: effects of the compounds of the present disclosure on the expression of target proteins in cells; endogenous in cells; host or cells: human PBMCs (Milecell Biotechnologies)
Procedure: as §1, §2, §3, §4, §5, §6

IKZF2 = target: T4, IKZF2 (Homo sapiens, UniProt Q96SW2+Q9UKS7); test: as above; type: cell-based
T4 construct: effects of the compounds of the present disclosure on the expression of target proteins in cells; endogenous in cells; host or cells: human PBMCs (Milecell Biotechnologies)
Procedure: as §1, §2, §3, §4, §5, §6

IKZF1 = target: T5, IKZF1 (Homo sapiens, UniProt Q13422+Q96SW2); test: as above; type: cell-based
T5 construct: effects of the compounds of the present disclosure on the expression of target proteins in cells; endogenous in cells; host or cells: human PBMCs (Milecell Biotechnologies)
Procedure: as §1, §2, §3, §4, §5, §6

IKZF3 = target: T6, IKZF3 (Homo sapiens, UniProt Q96SW2+Q9UKT9); test: as above; type: cell-based
T6 construct: effects of the compounds of the present disclosure on the expression of target proteins in cells; endogenous in cells; host or cells: human PBMCs (Milecell Biotechnologies)
Procedure: as §1, §2, §3, §4, §5, §6

[2] = Western blot, 24 hours of compound treatment, compounds tested at 50 nM and 500 nM (concentration for the table not stated)
[3] = 24 hours treatment, compounds at 50 nM and 500 nM (concentration behind the class not stated)

T3 sequence (P30291 whole entry): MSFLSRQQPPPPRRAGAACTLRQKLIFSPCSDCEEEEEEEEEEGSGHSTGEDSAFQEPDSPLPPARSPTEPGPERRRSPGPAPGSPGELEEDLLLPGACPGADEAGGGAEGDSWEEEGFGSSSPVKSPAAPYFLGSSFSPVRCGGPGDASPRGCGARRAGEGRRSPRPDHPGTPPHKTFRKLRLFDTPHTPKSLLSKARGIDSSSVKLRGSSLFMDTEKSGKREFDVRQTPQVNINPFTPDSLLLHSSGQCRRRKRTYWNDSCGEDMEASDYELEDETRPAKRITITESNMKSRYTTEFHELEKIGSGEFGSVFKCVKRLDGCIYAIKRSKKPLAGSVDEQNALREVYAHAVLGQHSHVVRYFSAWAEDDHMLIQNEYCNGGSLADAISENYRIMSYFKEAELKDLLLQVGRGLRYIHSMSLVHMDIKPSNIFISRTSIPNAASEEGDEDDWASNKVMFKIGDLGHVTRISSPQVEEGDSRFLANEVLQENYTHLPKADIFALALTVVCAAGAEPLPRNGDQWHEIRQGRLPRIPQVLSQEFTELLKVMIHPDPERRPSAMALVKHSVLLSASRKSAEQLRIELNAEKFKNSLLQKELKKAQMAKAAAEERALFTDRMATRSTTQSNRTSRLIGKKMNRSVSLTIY
T3 sequence (Q96SW2 whole entry): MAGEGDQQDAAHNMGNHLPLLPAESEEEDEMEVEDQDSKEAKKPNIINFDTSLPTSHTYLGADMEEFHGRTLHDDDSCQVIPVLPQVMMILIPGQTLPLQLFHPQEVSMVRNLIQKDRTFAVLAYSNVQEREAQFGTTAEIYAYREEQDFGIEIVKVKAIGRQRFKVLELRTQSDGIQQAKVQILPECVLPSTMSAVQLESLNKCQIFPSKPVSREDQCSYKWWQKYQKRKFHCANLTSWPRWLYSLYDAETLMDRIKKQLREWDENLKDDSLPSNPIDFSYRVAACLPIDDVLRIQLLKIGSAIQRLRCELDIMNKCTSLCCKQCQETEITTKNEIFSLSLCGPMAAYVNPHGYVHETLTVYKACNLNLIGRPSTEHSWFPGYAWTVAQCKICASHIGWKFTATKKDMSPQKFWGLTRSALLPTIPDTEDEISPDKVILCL
T3 sequence (Q16531 whole entry partner): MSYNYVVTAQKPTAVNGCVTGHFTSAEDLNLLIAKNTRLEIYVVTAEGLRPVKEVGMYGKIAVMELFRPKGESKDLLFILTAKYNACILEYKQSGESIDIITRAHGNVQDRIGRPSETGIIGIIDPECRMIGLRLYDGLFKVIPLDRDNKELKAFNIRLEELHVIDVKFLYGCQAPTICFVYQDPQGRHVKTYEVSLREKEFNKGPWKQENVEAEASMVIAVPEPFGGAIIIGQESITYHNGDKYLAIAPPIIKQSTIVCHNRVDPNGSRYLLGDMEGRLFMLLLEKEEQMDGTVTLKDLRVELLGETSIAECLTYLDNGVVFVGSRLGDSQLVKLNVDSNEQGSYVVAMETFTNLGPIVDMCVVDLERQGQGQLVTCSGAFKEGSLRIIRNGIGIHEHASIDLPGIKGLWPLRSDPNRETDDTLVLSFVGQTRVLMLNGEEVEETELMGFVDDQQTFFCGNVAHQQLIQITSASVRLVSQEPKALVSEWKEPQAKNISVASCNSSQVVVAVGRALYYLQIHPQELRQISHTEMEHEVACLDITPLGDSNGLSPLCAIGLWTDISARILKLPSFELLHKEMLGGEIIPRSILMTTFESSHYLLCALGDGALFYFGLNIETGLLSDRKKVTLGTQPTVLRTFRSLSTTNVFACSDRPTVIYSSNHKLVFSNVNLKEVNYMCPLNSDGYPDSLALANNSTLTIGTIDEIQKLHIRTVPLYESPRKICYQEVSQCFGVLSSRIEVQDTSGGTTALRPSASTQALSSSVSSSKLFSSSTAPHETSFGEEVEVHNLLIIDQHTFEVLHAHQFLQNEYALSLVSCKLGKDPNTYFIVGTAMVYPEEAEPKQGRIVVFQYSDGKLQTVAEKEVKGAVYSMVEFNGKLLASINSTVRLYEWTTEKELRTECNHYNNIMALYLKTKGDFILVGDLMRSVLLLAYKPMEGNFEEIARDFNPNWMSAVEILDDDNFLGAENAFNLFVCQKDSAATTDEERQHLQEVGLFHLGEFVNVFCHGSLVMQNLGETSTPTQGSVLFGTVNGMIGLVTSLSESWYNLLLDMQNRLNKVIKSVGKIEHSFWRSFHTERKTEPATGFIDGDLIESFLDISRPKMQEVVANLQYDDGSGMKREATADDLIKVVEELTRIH
T2 sequence (P48729 whole entry): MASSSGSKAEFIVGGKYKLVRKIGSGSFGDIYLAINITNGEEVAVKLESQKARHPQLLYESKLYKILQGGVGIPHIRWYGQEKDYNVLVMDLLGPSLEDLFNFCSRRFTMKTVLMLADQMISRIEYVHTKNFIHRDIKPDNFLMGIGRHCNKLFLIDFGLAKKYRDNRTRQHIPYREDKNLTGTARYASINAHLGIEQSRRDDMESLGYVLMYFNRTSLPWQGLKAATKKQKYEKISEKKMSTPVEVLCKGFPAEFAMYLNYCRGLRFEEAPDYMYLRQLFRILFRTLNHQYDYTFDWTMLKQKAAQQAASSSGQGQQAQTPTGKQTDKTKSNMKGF
T2 sequence (Q96SW2 whole entry): as the sequence (Q96SW2 whole entry) above
T2 sequence (Q16531 whole entry partner): as the sequence (Q16531 whole entry partner) above
T1 sequence (Q96SW2 whole entry): as the sequence (Q96SW2 whole entry) above
T5 sequence (Q13422 whole entry): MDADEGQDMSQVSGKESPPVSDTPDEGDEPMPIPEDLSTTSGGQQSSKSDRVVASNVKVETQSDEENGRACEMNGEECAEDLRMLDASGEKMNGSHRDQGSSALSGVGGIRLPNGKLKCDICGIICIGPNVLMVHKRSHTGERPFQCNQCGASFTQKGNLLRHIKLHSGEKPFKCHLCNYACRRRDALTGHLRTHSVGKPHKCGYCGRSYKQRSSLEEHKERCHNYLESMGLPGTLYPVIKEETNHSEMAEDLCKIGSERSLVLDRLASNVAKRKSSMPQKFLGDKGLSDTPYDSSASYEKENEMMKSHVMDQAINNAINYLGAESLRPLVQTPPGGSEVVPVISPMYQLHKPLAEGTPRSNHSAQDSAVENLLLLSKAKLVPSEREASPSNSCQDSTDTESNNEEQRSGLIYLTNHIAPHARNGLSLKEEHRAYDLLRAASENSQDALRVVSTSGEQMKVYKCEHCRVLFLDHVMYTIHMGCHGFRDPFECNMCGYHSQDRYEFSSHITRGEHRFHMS
T5 sequence (Q96SW2 whole entry): as the sequence (Q96SW2 whole entry) above
T5 sequence (Q16531 whole entry partner): as the sequence (Q16531 whole entry partner) above
T4 sequence (Q9UKS7 whole entry): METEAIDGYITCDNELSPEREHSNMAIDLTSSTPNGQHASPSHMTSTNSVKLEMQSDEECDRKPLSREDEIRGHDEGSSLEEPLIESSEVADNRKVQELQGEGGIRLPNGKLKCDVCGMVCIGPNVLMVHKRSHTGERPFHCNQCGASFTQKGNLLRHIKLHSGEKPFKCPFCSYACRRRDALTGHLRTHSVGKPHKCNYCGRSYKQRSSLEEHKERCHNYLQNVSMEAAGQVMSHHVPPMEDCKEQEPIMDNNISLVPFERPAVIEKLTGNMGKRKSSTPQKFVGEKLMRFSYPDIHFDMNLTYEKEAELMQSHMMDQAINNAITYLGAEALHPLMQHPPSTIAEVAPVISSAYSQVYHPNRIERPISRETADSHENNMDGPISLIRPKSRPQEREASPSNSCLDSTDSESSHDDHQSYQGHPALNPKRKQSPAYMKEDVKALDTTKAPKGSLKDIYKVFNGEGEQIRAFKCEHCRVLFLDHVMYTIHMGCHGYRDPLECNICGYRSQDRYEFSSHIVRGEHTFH
T4 sequence (Q96SW2 whole entry): as the sequence (Q96SW2 whole entry) above
T4 sequence (Q16531 whole entry partner): as the sequence (Q16531 whole entry partner) above
T6 sequence (Q9UKT9 whole entry): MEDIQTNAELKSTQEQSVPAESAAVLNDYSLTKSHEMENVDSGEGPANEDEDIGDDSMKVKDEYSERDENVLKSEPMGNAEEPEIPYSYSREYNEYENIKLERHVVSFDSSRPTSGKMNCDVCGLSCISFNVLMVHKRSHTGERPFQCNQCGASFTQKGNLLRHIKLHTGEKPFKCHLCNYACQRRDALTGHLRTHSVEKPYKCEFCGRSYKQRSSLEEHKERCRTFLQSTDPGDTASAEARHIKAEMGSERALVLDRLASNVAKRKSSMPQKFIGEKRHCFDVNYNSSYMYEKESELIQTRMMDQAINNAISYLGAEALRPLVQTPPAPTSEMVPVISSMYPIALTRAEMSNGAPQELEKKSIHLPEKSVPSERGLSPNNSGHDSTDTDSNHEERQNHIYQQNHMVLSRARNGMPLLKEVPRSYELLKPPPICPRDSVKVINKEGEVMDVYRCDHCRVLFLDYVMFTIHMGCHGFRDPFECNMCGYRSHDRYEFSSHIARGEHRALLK
T6 sequence (Q96SW2 whole entry): as the sequence (Q96SW2 whole entry) above
T6 sequence (Q16531 whole entry partner): as the sequence (Q16531 whole entry partner) above

Row | inhibition at 0.5 µM [1] [%] | inhibition at 2 µM [1] [%] | Compound | GSPT1 substrate protein remaining % (GSPT1; [2]) | CK1α substrate protein remaining % (CK1α; [2]) | Wee1 substrate protein remaining % (WEE1; [2]) | IKZF2 substrate protein remaining % (IKZF2; [2]) | IKZF 1 substrate protein remaining % (IKZF1; [2]) | IKZF3 substrate protein remaining % (IKZF3; [2]) | GSPT1 substrate protein remaining % (GSPT1; [3]) | CK1α substrate protein remaining % (CK1α; [3]) | Wee1 substrate protein remaining % (WEE1; [3]) | IKZF2 substrate protein remaining % (IKZF2; [3]) | IKZF 1 substrate protein remaining % (IKZF1; [3]) | IKZF3 substrate protein remaining % (IKZF3; [3])
1 | 60 to 80 | 80 to 100 | O=C1CCC(N2Cc3cc(CN4CCN(c5ccc(Cl)nc5)CC4)ccc3C2=S)C(=O)N1 (stereo not drawn) [GT-09230, 3-(5-((4-(6-chloropyridin-3-yl)piperazin-1-yl)methyl)-1-thioxoisoindolin-2-yl)piperidine-2,6-dione] | A (0% ≤ substrate protein remaining % ≤ 80%) | A (0% ≤ substrate protein remaining % ≤ 80%) | B (80%< substrate protein remaining %≤ 100%) | B (80%< substrate protein remaining %≤ 100%) | B (80%< substrate protein remaining %≤ 100%) | B (80%< substrate protein remaining %≤ 100%) | – | – | – | – | – | –
2 | 40 to 53 | 60 to 80 | CC(C)c1cc2c(C3=CCN(Cc4cccc5c4CN(C4CCC(=O)NC4=O)C5=S)CC3)ncnc2s1 (stereo not drawn) [GT-08954, 3-(4-((4-(6-isopropylthieno[2,3-d]pyrimidin-4-yl)-3,6-dihydropyridin-1(2H)-yl)methyl)-1-thioxoisoindolin-2-yl)piperidine-2,6-dione] | – | – | – | – | – | – | A (0% ≤ substrate protein remaining % ≤ 80%) | B (80%< substrate protein remaining %≤ 100%) | A (0% ≤ substrate protein remaining % ≤ 80%) | B (80%< substrate protein remaining %≤ 100%) | B (80%< substrate protein remaining %≤ 100%) | B (80%< substrate protein remaining %≤ 100%)
3 | 60 to 80 | 80 to 100 | Cc1nc(C2CCN(Cc3cccc4c3CN(C3CCC(=O)NC3=O)C4=S)CC2)c2c3c(sc2n1)CCC3 (stereo not drawn) [GT-08935, 3-(4-((4-(2-methyl-6,7-dihydro-5H-cyclopenta[4,5]thieno[2,3-d]pyrimidin-4-yl)piperidin-1-yl)methyl)-1-thioxoisoindolin-2-yl)piperidine-2,6-dione] | – | – | – | – | – | – | A (0% ≤ substrate protein remaining % ≤ 80%) | B (80%< substrate protein remaining %≤ 100%) | A (0% ≤ substrate protein remaining % ≤ 80%) | B (80%< substrate protein remaining %≤ 100%) | A (0% ≤ substrate protein remaining % ≤ 80%) | A (0% ≤ substrate protein remaining % ≤ 80%)
4 | 30 to 40 | 53 to 60 | O=C1CCC(N2Cc3c(CN4CCN(C(c5ccc(Cl)cc5)c5ccc(Cl)cc5)CC4)cccc3C2=S)C(=O)N1 (stereo not drawn) [GT-08203, 3-(4-((4-(bis(4-chlorophenyl)methyl)piperazin-1-yl)methyl)-1-thioxoisoindolin-2-yl)piperidine-2,6-dione] | A (0% ≤ substrate protein remaining % ≤ 80%) | B (80%< substrate protein remaining %≤ 100%) | A (0% ≤ substrate protein remaining % ≤ 80%) | A (0% ≤ substrate protein remaining % ≤ 80%) | B (80%< substrate protein remaining %≤ 100%) | A (0% ≤ substrate protein remaining % ≤ 80%) | – | – | – | – | – | –
5 | 60 to 80 | 80 to 100 | O=C1CCC(N2Cc3cc(CN4CCN(c5nccc(F)c5F)CC4)ccc3C2=S)C(=O)N1 (stereo not drawn) [GT-09235, 3-(5-((4-(3,4-difluoropyridin-2-yl)piperazin-1-yl)methyl)-1-thioxoisoindolin-2-yl)piperidine-2,6-dione] | A (0% ≤ substrate protein remaining % ≤ 80%) | A (0% ≤ substrate protein remaining % ≤ 80%) | B (80%< substrate protein remaining %≤ 100%) | A (0% ≤ substrate protein remaining % ≤ 80%) | B (80%< substrate protein remaining %≤ 100%) | A (0% ≤ substrate protein remaining % ≤ 80%) | – | – | – | – | – | –
6 | 53 to 60 | 80 to 100 | O=C1CCC(N2Cc3cc(CN4C[C@H]5C[C@@H]4CN5C(c4ccccc4)c4ccccc4)ccc3C2=S)C(=O)N1 (stereo partly drawn) [GT-07740, 3-(5-(((1R,4R)-5-benzhydryl-2,5-diazabicyclo[2.2.1]heptan-2-yl)methyl)-1-thioxoisoindolin-2-yl)piperidine-2,6-dione] | B (80%< substrate protein remaining %≤ 100%) | B (80%< substrate protein remaining %≤ 100%) | B (80%< substrate protein remaining %≤ 100%) | A (0% ≤ substrate protein remaining % ≤ 80%) | A (0% ≤ substrate protein remaining % ≤ 80%) | B (80%< substrate protein remaining %≤ 100%) | – | – | – | – | – | –

Row | Compound | inhibition at 0.5 µM [1] [%] | inhibition at 2 µM [1] [%] | GSPT1 substrate protein remaining % (GSPT1; [2]) | CK1α substrate protein remaining % (CK1α; [2]) | Wee1 substrate protein remaining % (WEE1; [2]) | IKZF2 substrate protein remaining % (IKZF2; [2]) | IKZF 1 substrate protein remaining % (IKZF1; [2]) | IKZF3 substrate protein remaining % (IKZF3; [2]) | GSPT1 substrate protein remaining % (GSPT1; [3]) | CK1α substrate protein remaining % (CK1α; [3]) | Wee1 substrate protein remaining % (WEE1; [3]) | IKZF2 substrate protein remaining % (IKZF2; [3]) | IKZF 1 substrate protein remaining % (IKZF1; [3]) | IKZF3 substrate protein remaining % (IKZF3; [3])
7 | O=C1CCC(N2Cc3c(CN4CC=C(c5cncc(Cl)c5)CC4)cccc3C2=S)C(=O)N1 (stereo not drawn) [GT-08461, 3-(4-((5-chloro-3',6'-dihydro-[3,4'-bipyridin]-1'(2'H)-yl)methyl)-1-thioxoisoindolin-2-yl)piperidine-2,6-dione] | 60 to 80 | 80 to 100 | B (80%< substrate protein remaining %≤ 100%) | B (80%< substrate protein remaining %≤ 100%) | A (0% ≤ substrate protein remaining % ≤ 80%) | B (80%< substrate protein remaining %≤ 100%) | B (80%< substrate protein remaining %≤ 100%) | A (0% ≤ substrate protein remaining % ≤ 80%) | – | – | – | – | – | –
8 | CC1(C)CCC(CN2CC3CCC(C2)N3Cc2ccc3c(c2)CN(C2CCC(=O)NC2=O)C3=S)=C(c2ccc(Cl)cc2)C1 (stereo not drawn) [GT-08163, 3-(5-((3-((4'-chloro-5,5-dimethyl-3,4,5,6-tetrahydro-[1,1'-biphenyl]-2-yl)methyl)-3,8-diazabicyclo[3.2.1]octan-8-yl)methyl)-1-thioxoisoindolin-2-yl)piperidine-2,6-dione] | 53 to 60 | 60 to 80 | – | – | – | – | – | – | A (0% ≤ substrate protein remaining % ≤ 80%) | B (80%< substrate protein remaining %≤ 100%) | A (0% ≤ substrate protein remaining % ≤ 80%) | B (80%< substrate protein remaining %≤ 100%) | A (0% ≤ substrate protein remaining % ≤ 80%) | B (80%< substrate protein remaining %≤ 100%)
9 | CC1(C)CCC(CN2CC3CC(C2)N3Cc2ccc3c(c2)CN(C2CCC(=O)NC2=O)C3=S)=C(c2ccc(Cl)cc2)C1 (stereo not drawn) [GT-08160, 3-(5-((3-((4'-chloro-5,5-dimethyl-3,4,5,6-tetrahydro-[1,1'-biphenyl]-2-yl)methyl)-3,6-diazabicyclo[3.1.1]heptan-6-yl)methyl)-1-thioxoisoindolin-2-yl)piperidine-2,6-dione] | 53 to 60 | 80 to 100 | – | – | – | – | – | – | A (0% ≤ substrate protein remaining % ≤ 80%) | B (80%< substrate protein remaining %≤ 100%) | A (0% ≤ substrate protein remaining % ≤ 80%) | A (0% ≤ substrate protein remaining % ≤ 80%) | B (80%< substrate protein remaining %≤ 100%) | A (0% ≤ substrate protein remaining % ≤ 80%)
